Biological target: T1, androgen receptor (Homo sapiens, UniProt P10275)
T1 sequence (P10275 1-920): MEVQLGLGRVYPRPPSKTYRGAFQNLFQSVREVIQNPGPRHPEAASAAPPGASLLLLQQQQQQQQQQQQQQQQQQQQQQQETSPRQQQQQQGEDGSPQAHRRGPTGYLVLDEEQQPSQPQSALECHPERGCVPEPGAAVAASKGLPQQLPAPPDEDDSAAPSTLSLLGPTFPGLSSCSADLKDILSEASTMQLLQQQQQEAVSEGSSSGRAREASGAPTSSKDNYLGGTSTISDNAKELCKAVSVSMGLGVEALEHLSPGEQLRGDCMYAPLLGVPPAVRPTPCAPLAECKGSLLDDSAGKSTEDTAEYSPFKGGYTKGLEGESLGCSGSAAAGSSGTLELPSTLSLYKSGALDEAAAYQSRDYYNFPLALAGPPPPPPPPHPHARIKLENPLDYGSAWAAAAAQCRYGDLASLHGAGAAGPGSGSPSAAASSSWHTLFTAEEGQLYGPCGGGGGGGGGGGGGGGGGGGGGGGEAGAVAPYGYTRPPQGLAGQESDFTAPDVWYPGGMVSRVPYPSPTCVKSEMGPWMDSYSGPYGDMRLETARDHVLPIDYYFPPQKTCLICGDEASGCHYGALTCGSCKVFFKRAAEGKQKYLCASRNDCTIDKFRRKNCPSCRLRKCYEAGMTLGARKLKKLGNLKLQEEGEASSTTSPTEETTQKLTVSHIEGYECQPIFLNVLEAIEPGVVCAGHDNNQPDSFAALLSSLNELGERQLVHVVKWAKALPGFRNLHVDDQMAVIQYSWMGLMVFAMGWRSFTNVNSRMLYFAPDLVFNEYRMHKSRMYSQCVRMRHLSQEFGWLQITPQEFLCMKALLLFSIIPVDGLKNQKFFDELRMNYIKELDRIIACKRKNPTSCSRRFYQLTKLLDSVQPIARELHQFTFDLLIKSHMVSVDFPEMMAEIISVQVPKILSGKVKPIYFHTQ
Test: biochemical assays (not further specified)
Settings: compound coupled from the second-peak acid (RT=21 min)

activity in the biochemical assays: active
Structure (SMILES): Cc1cnc(F)c(CNC(=O)C(O)(c2ccccc2)C(F)(F)C(F)(F)F)c1 (single isomer, unassigned) [Example 3-2, (2R or 2S)-3,3,4,4,4-pentafluoro-N-[(2-fluoro-5-methylpyridin-3-yl)methyl]-2-hydroxy-2-phenylbutanamide]
